Measurements as given in patent US20040082503A1, “Methods for treatment of diabetes using peptide analogues of insulin” (Neurocrine Biosciences, Inc., priority 1998, published 2004).
Values joined by “and” are separate entries in the source; they are usually repeats but may differ in a detail not shown here. Identical values can stand only once.

Key:
[1] = system: Insulin B chain (9-23) specific murine T cell clone PD12-4.1; assay: Proliferation of insulin B chain (9-23) specific murine T cell clone PD12-4.1; format: cell-based, mouse (NOD); conditions: clone PD12-4.1, 50 μM peptide, Exp. 1; for S.I. (Stimulation Index): cpm with peptide/cpm in medium alone
Protocol: (§1) Insulin specific NOD T cell lines were established by culturing lymphocytes isolated from islet-infiltrating populations by in vitro stimulation with either porcine insulin at 25 μg/ml and irradiated NOD islet cell in the presence of irradiated NOD spleen cells as antigen presenting cells and cytokines. To obtain the infiltrating lymphocytes the following procedures were performed (see Wegmann et al., Eur. J. Immunol. 24:1853, 1994): the pancreas from the NOD mouse was digested with collagenase and individual islets were isolated manually. The infiltrating lymphocytes were then obtained by mild trypsin digestion of the islets. The insulin specific T cell lines or clones were propagated by serial stimulation in the presence of NOD spleen cells, porcine insulin and lymphokines. Clones were obtained by limiting dilution of the B chain (9-23) specific T cell lines in the presence of the antigen presenting cells and porcine insulin at 25 μg/ml. Wells with a growing population of cells following limiting dilution were expanded in appropriate medium, and after one cycle of growth were tested for reactivity to the B chain (9-23) peptide of insulin by evaluating the proliferative response.
(§2) Insulin B chain (9-23) (SEQ ID NO:2) specific mouse (NOD) T cell clones were isolated from infiltrated islets as described in Example 2. Peptide analogues with single alanine substitutions were prepared as described in Example 1. The effect of each analogue on T cell proliferation was then evaluated using an assay performed in 96-well flat bottom microtiter plates (see Daniel et al., Eur. J. Immunol. 25:1056, 1995). Briefly 25,000 T cell clones along with 1 million irradiated NOD spleen cells were cultured in the presence of 50 μg/ml of insulin B chain 9-23 peptide or any of the alanine substituted peptides listed below in triplicate sets. The plates were incubated for a total of 72 hours in 7% carbon dioxide atmosphere with a pulse of 1 μCi/well of tritiated thymidine for the last 6-8 hours of culture. Cells were harvested on a glass fiber filter and the associated radioactivity was counted in a liquid scintillation counter. Results are expressed as mean counts per minute of triplicate wells.
(§3) NOD T cell clones were incubated in the presence of 50 μM of either the native B chain (9-23) peptide or NBI-6024. The data in Table 3 represent the mean of triplicate sample±standard error of the mean. Within Table 3, S.I. (Stimulation Index)=proliferation (cpm) in the presence of the peptide/proliferation (cpm) in medium alone.

[2] = system: lymph node and spleen cells from immunized NOD mice; assay: Immunogenicity in NOD mice: proliferative response of lymph node/spleen cells of immunized mice; format: cell-based, NOD mouse
Protocol: FIGS. 17A and 17B are graphs showing the ability of a double substituted peptide (A^16,19) to evoke an immune response. Five female NOD mice were immunized subcutaneously with 20 mg/kg of soluble NBI-6024 on days 1, 6 and 12. On day 15, the mice were sacrificed, the inguinal lymph node cells removed and culture in the presence of varying concentrations (0-50 μM) of either NBI-6024 (FIG. 17A) or insulin B chain (9-23) peptide (FIG. 17B). The extent of T-cell proliferation was determined using ^3H-thymidine incorporation. The response is expressed as mean CPM±SEM of triplicate cultures.
Groups of 3-4 NOD mice were immunized with 100-400 μg of peptide analogues subcutaneously in mannitol acetate buffer three times within a period of 10-15 days. Following the last immunization, lymph node cells and/or spleen cells were used in a proliferation assay in which different concentrations of the immunizing peptide were cultured with the cells for 3-4 days. The last 18 hours of culture included tritiated thymidine. Cells were harvested and counted in a scintillation counter and the response is expressed as CPM±SEM.
The ability of the double substituted peptide NBI-6024 (A^16,19) to induce a cellular immune response in NOD mouse strain was next determined. Two female NOD mice were immunized with 10 mg/kg NBI-6024 either as an aqueous suspension or, as a control, emulsified in complete Freund's adjuvant (CFA). On Day 8, three days following the last injection, the mice were sacrificed, the spleen and inguinal lymph node cells were removed and pooled, and a single-cell suspension was prepared. Cells were cultured in the presence of varying concentrations (0-25 μM) of NBI-6024. The ability of these lymphoid cells to proliferate in response to NBI-6024 was measured in vitro by [^3H]-thymidine incorporation.

[3] = system: Insulin B chain (9-23) specific murine T cell clone PD12-4.9; assay: Proliferation of insulin B chain (9-23) specific murine T cell clone PD12-4.9; format: cell-based, mouse (NOD); conditions: clone PD12-4.9, 50 μM peptide, Exp. 1 and 2; for S.I. (Stimulation Index): cpm with peptide/cpm in medium alone
Protocol: as §1, §2, §3

[4] = system: Insulin B chain (9-23) specific murine T cell clone PD12-2.35; assay: Proliferation of insulin B chain (9-23) specific murine T cell clone PD12-2.35; format: cell-based, mouse (NOD); conditions: clone PD12-2.35, 50 μM peptide, Exp. 1 and 2; for S.I. (Stimulation Index): cpm with peptide/cpm in medium alone
Protocol: as §1, §2, §3

[5] = T cells of Mouse #1 immunized with soluble NBI-6024, challenge peptide 1 μM, 0 μM 19,130 ± 2191
[6] = T cells of Mouse #1 immunized with soluble NBI-6024, challenge peptide 5 μM
[7] = T cells of Mouse #1 immunized with soluble NBI-6024, challenge peptide 25 μM
[8] = T cells of Mouse #2 immunized with soluble NBI-6024, challenge peptide 1 μM, 0 μM 21,588 ± 2326
[9] = T cells of Mouse #2 immunized with soluble NBI-6024, challenge peptide 5 μM
[10] = T cells of Mouse #2 immunized with soluble NBI-6024, challenge peptide 25 μM
[11] = T cells of Mouse #3 immunized with soluble NBI-6024, challenge peptide 1 μM, 0 μM 24,006 ± 2803
[12] = T cells of Mouse #3 immunized with soluble NBI-6024, challenge peptide 5 μM
[13] = T cells of Mouse #3 immunized with soluble NBI-6024, challenge peptide 25 μM
[14] = listed as Insulin B Chain (9-23)

Substance | Proliferative response, Mean cpm ± sem [1] | S.I. (Stimulation Index) [1] | CPM ± SEM [2, 5] | CPM ± SEM [2, 6] | CPM ± SEM [2, 7] | CPM ± SEM [2, 8] | CPM ± SEM [2, 9] | CPM ± SEM [2, 10] | CPM ± SEM [2, 11] | CPM ± SEM [2, 12] | CPM ± SEM [2, 13] | further results
Native 9-23: native peptide, residues 9-23 of human insulin B chain (SEQ ID NO:2) (SHLVEALYLVCGERG; Residues 9-23 of human insulin B chain; listed as Homo sapiens) [reference compound] | 28,593 ± 4664 cpm | 132.99 | 16,870 ± 4469 CPM | 21,292 ± 3216 CPM | 33,317 ± 3619 CPM | 17,262 ± 602 CPM | 19,648 ± 2169 CPM | 30,612 ± 3557 CPM | 25,825 ± 3841 CPM | 58,567 ± 2737 CPM | 113,366 ± 515 CPM | Proliferative response, Mean cpm ± sem [3, 14]: 45,541 ± 5,222 cpm and 65,624 ± 4,979 cpm; S.I. (Stimulation Index) [3, 14]: 4.99 and 9.1; Proliferative response, Mean cpm ± sem [4, 14]: 120,886 ± 7,171 cpm and 100,521 ± 1,581 cpm; S.I. (Stimulation Index) [4, 14]: 175.7 and 203.89
NBI-6024: insulin B chain 9-23 with alanine substitutions at positions 16 and 19 (SHLVEALALVAGERG) | 566 ± 30 cpm | 2.63 | 48,319 ± 1918 CPM | 160,673 ± 2269 CPM | 268,005 ± 11198 CPM | 54,519 ± 5666 CPM | 126,123 ± 13851 CPM | 202,707 ± 8125 CPM | 64,239 ± 9493 CPM | 140,836 ± 11778 CPM | 240,278 ± 15015 CPM | Cross-reactive response to Insulin B chain (9-23) ([2]; CFA-emulsified peptide): not seen; Proliferative response to challenge with the immunizing analogue ([2]; lymph node cells from mice immunized with the analogue in CFA, dose-dependent): strong proliferative response; Cross-reactive response to Insulin B chain (9-23) ([2]; lymphocytes from mice immunized with the soluble peptide): also responded to Insulin B chain (9-23); Proliferative response to NBI-6024 challenge in vitro ([2]; spleen and inguinal lymph node cells after soluble administered peptide): strong proliferative response; Proliferative response, Mean cpm ± sem [3]: 12,313 ± 1,372 cpm and 6,171 ± 725 cpm; S.I. (Stimulation Index) [3]: 1.35 and 0.85; Proliferative response, Mean cpm ± sem [4]: 841 ± 88 cpm and 452 ± 179 cpm; S.I. (Stimulation Index) [4]: 1.22 and 0.91
